From patent US10662229B2, “Spider venom peptides and methods of use for modulating sodium channels” (priority 2016, dated 2020)
Where a SMILES comes first, the peptide text is derived from it. Bridges are numbered along the chain shown (N, C = ends).

Tests used:
Assay type in all cases: cell-based
[1] = biological target: T1, hNav1.1 (Homo sapiens, UniProt P35498); assay: FLIPR membrane potential assay, hNav1.1; conditions: for Selectivity for Nav1.7, Nav subtype 1.1: membrane potential assay
T1 construct: host or cells: HEK293
Protocol: (§1) HEK293 cells stably expressing hNav1.1, hNav1.2, hNav1.3, hNav1.4, hNav1.5, hNav1.6, hNav1.7 and […] (SB Drug Discovery, Glasgow, UK) were cultured in minimum essential media (MEM) containing 10% v/v FBS supplemented with L-glutamine (2 mM) and selection antibiotics G-418 (0.5 mg/mL), blasticidin (2-4 μg/mL) and zeocin (0.5 mg/mL) as recommended by the manufacturer. CHO cells stably expressing hNav1.8 in a tetracycline-inducible system (Chantest, OH, USA) were cultured in Ham's F-12 containing 10% v/v FBS and selection antibiotics as recommended by the manufacturer. To induce hNav1.8 expression, cells were cultured in the presence of tetracycline (1 μg/mL) for 24 h at 27° C. Cells were grown in a humidified 5% CO2 incubator at 37° C., grown to 70-80% confluence, and passaged every 3-4 days using TrypLE Express (Invitrogen).
(§2) Cells were plated 48 h before the assay on 384-well black walled imaging plates at a density of 10,000 to 15,000 cells per well and were loaded with red membrane potential dye for 30 min at 37° C. (Molecular Devices, CA, USA). One vial of bulk red membrane potential dye was reconstituted to a 10× stock solution with PSS and stored at −20° C. and diluted to 1× solution with PSS on the day of the assay. […] Changes in membrane potential were assessed using the FLIPR^TETRA (excitation 515 to 545 nm, emission 565 to 625 nm) every second for 300 s after adding agonists.

[2] = biological target: T2, hNav1.2 (Homo sapiens, UniProt Q99250); assay: FLIPR membrane potential assay, hNav1.2; conditions: for Selectivity for Nav1.7, Nav subtype 1.2: membrane potential assay
T2 construct: host or cells: HEK293
Protocol: as §1, §2

[3] = biological target: T3, hNav1.3 (Homo sapiens, UniProt Q9NY46); assay: FLIPR membrane potential assay, hNav1.3; conditions: for Selectivity for Nav1.7, Nav subtype 1.3: membrane potential assay
T3 construct: host or cells: HEK293
Protocol: as §1, §2

[4] = biological target: T4, hNav1.6 (Homo sapiens, UniProt Q9UQD0); assay: FLIPR membrane potential assay, hNav1.6; conditions: for Selectivity for Nav1.7, Nav subtype 1.6: membrane potential assay
T4 construct: host or cells: HEK293
Protocol: as §1, §2

[5] = biological target: T5, hNav1.5 (Homo sapiens, UniProt Q14524); assay: FLIPR membrane potential assay, hNav1.5; conditions: for Selectivity for Nav1.7, Nav subtype 1.5: membrane potential assay
T5 construct: host or cells: HEK293
Protocol: as §1, §2

[6] = biological target: T6, hNav1.4 (Homo sapiens, UniProt P35499); assay: FLIPR membrane potential assay, hNav1.4; conditions: for Selectivity for Nav1.7, Nav subtype 1.4: membrane potential assay
T6 construct: host or cells: HEK293
Protocol: as §1, §2

[7] = biological target: T7, hNav1.8 (Homo sapiens, UniProt Q9Y5Y9); assay: FLIPR membrane potential assay, hNav1.8; conditions: for Selectivity for Nav1.7, Nav subtype 1.8: membrane potential assay
T7 construct: host or cells: HEK293
Protocol: as §1, §2

[8] = biological target: T8, hNav1.7 (Homo sapiens, UniProt Q15858); assay: FLIPR membrane potential assay, hNav1.7; conditions: for Selectivity for Nav1.7, Nav subtype 1.7: membrane potential assay, reference subtype
T8 construct: host or cells: HEK293
Protocol: as §1, §2

T2 sequence (Q99250 whole entry): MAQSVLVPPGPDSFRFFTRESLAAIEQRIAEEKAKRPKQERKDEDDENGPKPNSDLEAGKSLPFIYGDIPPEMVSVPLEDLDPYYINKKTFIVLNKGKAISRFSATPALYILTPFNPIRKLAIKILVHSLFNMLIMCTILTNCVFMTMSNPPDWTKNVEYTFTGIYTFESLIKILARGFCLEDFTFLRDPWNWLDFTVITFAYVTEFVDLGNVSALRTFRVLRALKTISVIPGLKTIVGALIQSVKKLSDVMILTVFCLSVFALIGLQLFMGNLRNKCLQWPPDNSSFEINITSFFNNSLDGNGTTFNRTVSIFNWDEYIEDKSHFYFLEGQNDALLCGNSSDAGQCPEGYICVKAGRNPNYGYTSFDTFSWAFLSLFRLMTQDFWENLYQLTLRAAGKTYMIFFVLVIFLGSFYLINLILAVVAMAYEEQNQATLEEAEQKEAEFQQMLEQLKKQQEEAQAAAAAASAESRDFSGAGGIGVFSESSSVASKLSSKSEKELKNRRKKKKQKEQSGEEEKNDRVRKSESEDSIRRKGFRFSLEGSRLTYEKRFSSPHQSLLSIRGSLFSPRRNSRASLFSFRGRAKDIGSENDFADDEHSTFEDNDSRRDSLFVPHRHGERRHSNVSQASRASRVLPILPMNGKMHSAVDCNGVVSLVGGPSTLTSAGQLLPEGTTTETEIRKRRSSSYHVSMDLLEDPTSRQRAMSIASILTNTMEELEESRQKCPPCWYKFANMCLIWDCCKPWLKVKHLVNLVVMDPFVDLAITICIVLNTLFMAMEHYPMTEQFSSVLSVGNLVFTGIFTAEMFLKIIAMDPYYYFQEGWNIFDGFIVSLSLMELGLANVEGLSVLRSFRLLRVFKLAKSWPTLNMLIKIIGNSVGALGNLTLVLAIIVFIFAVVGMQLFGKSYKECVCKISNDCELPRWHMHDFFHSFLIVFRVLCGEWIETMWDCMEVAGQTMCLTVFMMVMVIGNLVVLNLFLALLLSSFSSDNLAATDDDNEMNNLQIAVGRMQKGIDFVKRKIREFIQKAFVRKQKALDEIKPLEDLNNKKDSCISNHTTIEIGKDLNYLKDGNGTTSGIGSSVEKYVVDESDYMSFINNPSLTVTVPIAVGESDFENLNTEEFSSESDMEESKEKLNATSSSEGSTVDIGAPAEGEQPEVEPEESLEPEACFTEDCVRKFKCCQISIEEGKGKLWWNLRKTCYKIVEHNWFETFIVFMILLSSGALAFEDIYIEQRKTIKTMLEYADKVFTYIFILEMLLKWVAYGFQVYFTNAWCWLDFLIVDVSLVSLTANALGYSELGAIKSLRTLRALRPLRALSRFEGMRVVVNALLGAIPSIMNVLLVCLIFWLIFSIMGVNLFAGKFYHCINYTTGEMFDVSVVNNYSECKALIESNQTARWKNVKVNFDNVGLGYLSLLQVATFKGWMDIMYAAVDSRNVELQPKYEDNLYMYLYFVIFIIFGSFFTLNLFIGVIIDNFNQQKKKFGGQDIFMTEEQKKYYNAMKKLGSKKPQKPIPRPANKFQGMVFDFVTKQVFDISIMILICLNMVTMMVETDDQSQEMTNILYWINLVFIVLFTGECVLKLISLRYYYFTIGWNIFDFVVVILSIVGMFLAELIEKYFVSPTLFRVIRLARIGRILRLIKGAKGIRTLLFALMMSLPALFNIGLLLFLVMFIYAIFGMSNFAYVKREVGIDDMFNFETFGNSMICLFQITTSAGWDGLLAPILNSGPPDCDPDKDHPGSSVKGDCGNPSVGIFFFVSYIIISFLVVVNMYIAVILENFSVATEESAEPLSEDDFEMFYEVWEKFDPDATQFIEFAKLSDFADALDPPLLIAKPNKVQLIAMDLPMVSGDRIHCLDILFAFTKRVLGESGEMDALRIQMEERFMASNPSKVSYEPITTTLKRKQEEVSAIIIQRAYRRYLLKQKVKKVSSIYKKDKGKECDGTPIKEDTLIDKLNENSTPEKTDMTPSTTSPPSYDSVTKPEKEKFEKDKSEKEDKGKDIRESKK
T7 sequence (Q9Y5Y9 whole entry): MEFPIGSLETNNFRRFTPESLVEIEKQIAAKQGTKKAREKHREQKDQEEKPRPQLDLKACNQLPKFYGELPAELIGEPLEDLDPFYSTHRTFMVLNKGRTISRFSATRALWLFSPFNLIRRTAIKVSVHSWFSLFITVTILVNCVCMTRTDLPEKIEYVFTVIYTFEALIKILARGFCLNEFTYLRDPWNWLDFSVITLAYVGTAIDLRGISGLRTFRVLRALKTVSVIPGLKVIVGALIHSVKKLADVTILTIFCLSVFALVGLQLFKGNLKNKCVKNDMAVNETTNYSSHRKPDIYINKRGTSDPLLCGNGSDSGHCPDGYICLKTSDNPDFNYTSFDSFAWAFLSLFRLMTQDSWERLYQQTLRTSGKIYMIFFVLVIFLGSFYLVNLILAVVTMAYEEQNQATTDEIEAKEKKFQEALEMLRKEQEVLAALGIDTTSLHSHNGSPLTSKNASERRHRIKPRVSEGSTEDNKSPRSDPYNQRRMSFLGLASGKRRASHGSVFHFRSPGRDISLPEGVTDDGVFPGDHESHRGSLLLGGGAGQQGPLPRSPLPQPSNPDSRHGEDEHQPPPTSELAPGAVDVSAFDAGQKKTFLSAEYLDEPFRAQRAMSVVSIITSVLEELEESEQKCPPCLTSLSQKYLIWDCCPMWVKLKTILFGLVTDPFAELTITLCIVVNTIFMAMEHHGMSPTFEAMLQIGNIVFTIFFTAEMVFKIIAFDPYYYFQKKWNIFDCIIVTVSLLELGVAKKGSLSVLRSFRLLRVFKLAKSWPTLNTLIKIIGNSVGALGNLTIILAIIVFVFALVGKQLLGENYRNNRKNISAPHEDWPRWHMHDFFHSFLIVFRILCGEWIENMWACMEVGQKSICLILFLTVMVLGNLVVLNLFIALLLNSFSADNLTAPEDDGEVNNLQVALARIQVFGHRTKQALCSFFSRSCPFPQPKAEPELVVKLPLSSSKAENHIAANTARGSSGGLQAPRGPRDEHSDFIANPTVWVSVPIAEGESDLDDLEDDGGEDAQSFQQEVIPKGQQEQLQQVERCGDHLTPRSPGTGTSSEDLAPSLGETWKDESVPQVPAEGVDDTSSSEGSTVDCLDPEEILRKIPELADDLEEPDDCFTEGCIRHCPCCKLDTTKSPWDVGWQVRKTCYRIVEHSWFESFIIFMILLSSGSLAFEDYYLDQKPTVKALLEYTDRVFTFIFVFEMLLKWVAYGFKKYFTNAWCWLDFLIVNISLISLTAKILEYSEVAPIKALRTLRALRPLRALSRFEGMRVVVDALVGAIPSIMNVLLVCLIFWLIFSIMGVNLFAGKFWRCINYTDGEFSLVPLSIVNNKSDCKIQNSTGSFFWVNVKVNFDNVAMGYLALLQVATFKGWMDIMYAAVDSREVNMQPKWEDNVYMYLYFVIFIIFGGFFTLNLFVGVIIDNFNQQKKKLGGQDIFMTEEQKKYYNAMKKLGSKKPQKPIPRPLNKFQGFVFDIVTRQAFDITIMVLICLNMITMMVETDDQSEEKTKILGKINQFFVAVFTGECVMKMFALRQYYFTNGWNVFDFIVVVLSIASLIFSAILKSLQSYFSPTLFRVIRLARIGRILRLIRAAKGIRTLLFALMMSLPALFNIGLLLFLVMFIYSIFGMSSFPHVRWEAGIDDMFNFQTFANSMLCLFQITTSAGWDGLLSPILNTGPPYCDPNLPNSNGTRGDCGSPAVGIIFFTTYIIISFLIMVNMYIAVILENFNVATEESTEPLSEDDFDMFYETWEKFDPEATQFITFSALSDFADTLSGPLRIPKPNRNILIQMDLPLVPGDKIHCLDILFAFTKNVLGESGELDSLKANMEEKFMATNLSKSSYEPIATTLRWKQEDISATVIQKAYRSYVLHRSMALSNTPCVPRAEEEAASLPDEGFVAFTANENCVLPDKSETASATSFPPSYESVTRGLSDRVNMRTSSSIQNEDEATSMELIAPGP

SMILES	IC50 [1]	Selectivity for Nav1.7, Nav subtype 1.1 [1]	IC50 [2]	Selectivity for Nav1.7, Nav subtype 1.2 [2]	IC50 [3]	Selectivity for Nav1.7, Nav subtype 1.3 [3]	IC50 [4]	Selectivity for Nav1.7, Nav subtype 1.6 [4]	IC50 [5]	Selectivity for Nav1.7, Nav subtype 1.5 [5]	IC50 [6]	Selectivity for Nav1.7, Nav subtype 1.4 [6]	IC50 [7]	Selectivity for Nav1.7, Nav subtype 1.8 [7]	IC50 [8]	Selectivity for Nav1.7, Nav subtype 1.7 [8]
CSCC[C@@H]1NC(=O)[C@H](Cc2ccc(O)cc2)NC(=O)[C@H](CCCNC(=N)N)NC(=O)[C@@H](NC(=O)[C@@H](N)CC(=O)O)CSSC[C@@H]2NC(=O)[C@@H]3CSSC[C@@H](C(=O)N[C@@H](C)C(=O)N[C@@H](Cc4c[nH]c5ccccc45)C(=O)N[C@@H](CC(=O)O)C(=O)N[C@@H](Cc4ccccc4)C(=O)N[C@H](C(=O)N[C@@H](Cc4ccccc4)C(=O)N[C@H](C(=O)O)[C@@H](C)O)[C@@H](C)O)NC(=O)[C@H](Cc4ccc(O)cc4)NC(=O)[C@H](CCCCN)NC(=O)[C@H](CCSC)NC(=O)[C@H](CCCCN)NC(=O)[C@H](CCCNC(=N)N)NC(=O)[C@H](CCCCN)NC(=O)[C@H](CSSC[C@H](NC(=O)CNC(=O)CNC(=O)[C@H](Cc4ccccc4)NC1=O)C(=O)N[C@@H](CCC(=O)O)C(=O)N[C@@H](CCCCN)C(=O)N[C@@H](CC(=O)O)C(=O)N[C@@H](CCC(=O)O)C(=O)N[C@@H](CC(=O)O)C(=O)N3)NC(=O)CNC(=O)[C@H](CC(C)C)NC(=O)[C@H](Cc1c[nH]cn1)NC(=O)[C@H](CCCCN)NC2=O [[D8G]Pnc1a] (H-DCRYMFGGCEKDEDCCKHLGCKRKMKYCAWDFTFT-OH; disulfide 2-16, 9-21, 15-28)	2000 nM	35	301 nM	6	658 nM	13	2000 nM	46	> 30000 nM	>616	2000 nM	48	> 30000 nM	>616	49 nM	1
CSCC[C@@H]1NC(=O)[C@H](Cc2ccc(O)cc2)NC(=O)[C@H](CCCNC(=N)N)NC(=O)[C@@H](NC(=O)[C@@H](N)CC(=O)O)CSSC[C@@H]2NC(=O)[C@@H]3CSSC[C@@H](C(=O)N[C@@H](C)C(=O)N[C@@H](Cc4c[nH]c5ccccc45)C(=O)N[C@@H](CC(=O)O)C(=O)N[C@@H](Cc4ccccc4)C(=O)N[C@H](C(=O)N[C@@H](Cc4ccccc4)C(=O)N[C@H](C(=O)O)[C@@H](C)O)[C@@H](C)O)NC(=O)[C@H](Cc4ccc(O)cc4)NC(=O)[C@H](CCCCN)NC(=O)[C@H](CCSC)NC(=O)[C@H](CCCCN)NC(=O)[C@H](CCCNC(=N)N)NC(=O)[C@H](CCCCN)NC(=O)[C@H](CSSC[C@H](NC(=O)[C@H](CCCCN)NC(=O)CNC(=O)[C@H](Cc4ccccc4)NC1=O)C(=O)N[C@@H](CCC(=O)O)C(=O)N[C@@H](CCCCN)C(=O)N[C@@H](CC(=O)O)C(=O)N[C@@H](CCC(=O)O)C(=O)N[C@@H](CC(=O)O)C(=O)N3)NC(=O)CNC(=O)[C@H](CC(C)C)NC(=O)[C@H](Cc1c[nH]cn1)NC(=O)[C@H](CCCCN)NC2=O [[D8K]Pnc1a] (H-DCRYMFGKCEKDEDCCKHLGCKRKMKYCAWDFTFT-OH; disulfide 2-16, 9-21, 15-28)	241 nM	19	40 nM	3	2000 nM	159	> 30000 nM	>2000	> 30000 nM	>2000	663 nM	52	> 30000 nM	>2000	13 nM	1
CSCC[C@@H]1NC(=O)[C@H](Cc2ccc(O)cc2)NC(=O)[C@H](CCCNC(=N)N)NC(=O)[C@@H](NC(=O)[C@@H](N)CC(=O)O)CSSC[C@@H]2NC(=O)[C@@H]3CSSC[C@@H](C(=O)N[C@@H](C)C(=O)N[C@@H](Cc4c[nH]c5ccccc45)C(=O)N[C@@H](CC(=O)O)C(=O)N[C@@H](Cc4ccccc4)C(=O)N[C@H](C(=O)N[C@@H](Cc4ccccc4)C(=O)N[C@H](C(=O)O)[C@@H](C)O)[C@@H](C)O)NC(=O)[C@H](Cc4ccc(O)cc4)NC(=O)[C@H](CCCCN)NC(=O)[C@H](CCSC)NC(=O)[C@H](CCCCN)NC(=O)[C@H](CCCNC(=N)N)NC(=O)[C@H](CCCCN)NC(=O)[C@H](CSSC[C@H](NC(=O)[C@H](CC(N)=O)NC(=O)CNC(=O)[C@H](Cc4ccccc4)NC1=O)C(=O)N[C@@H](CCC(=O)O)C(=O)N[C@@H](CCCCN)C(=O)N[C@@H](CC(=O)O)C(=O)N[C@@H](CCC(=O)O)C(=O)N[C@@H](CC(=O)O)C(=O)N3)NC(=O)CNC(=O)[C@H](CC(C)C)NC(=O)[C@H](Cc1c[nH]cn1)NC(=O)[C@H](CCCCN)NC2=O [[D8N]Pnc1a] (H-DCRYMFGNCEKDEDCCKHLGCKRKMKYCAWDFTFT-OH; disulfide 2-16, 9-21, 15-28)	349 nM	14	147 nM	6	3000 nM	118	> 30000 nM	>1000	> 30000 nM	>1000	852 nM	35	> 30000 nM	>1000	24 nM	1
CSCC[C@@H]1NC(=O)[C@H](Cc2ccc(O)cc2)NC(=O)[C@H](CCCNC(=N)N)NC(=O)[C@@H](NC(=O)[C@@H](N)CC(=O)O)CSSC[C@@H]2NC(=O)[C@@H]3CSSC[C@@H](C(=O)N[C@@H](C)C(=O)N[C@@H](Cc4c[nH]c5ccccc45)C(=O)N[C@@H](CC(=O)O)C(=O)N[C@@H](Cc4ccccc4)C(=O)N[C@H](C(=O)N[C@@H](Cc4ccccc4)C(=O)N[C@H](C(=O)O)[C@@H](C)O)[C@@H](C)O)NC(=O)[C@H](Cc4ccc(O)cc4)NC(=O)[C@H](CCCCN)NC(=O)[C@H](CCSC)NC(=O)[C@H](CCCCN)NC(=O)[C@H](CCCNC(=N)N)NC(=O)[C@H](CCCCN)NC(=O)[C@H](CSSC[C@H](NC(=O)[C@H](CC(=O)O)NC(=O)CNC(=O)[C@H](Cc4ccccc4)NC1=O)C(=O)N[C@@H](CCCCN)C(=O)N[C@@H](CCCCN)C(=O)N[C@@H](CC(=O)O)C(=O)N[C@@H](CCC(=O)O)C(=O)N[C@@H](CC(=O)O)C(=O)N3)NC(=O)CNC(=O)[C@H](CC(C)C)NC(=O)[C@H](Cc1c[nH]cn1)NC(=O)[C@H](CCCCN)NC2=O [[E10K]Pnc1a] (H-DCRYMFGDCKKDEDCCKHLGCKRKMKYCAWDFTFT-OH; disulfide 2-16, 9-21, 15-28)	384 nM	9	172 nM	4	5000 nM	128	820 nM	20	13000 nM	326	2000 nM	49	> 30000 nM	>700	41 nM	1
